Earlier results, collected in US20250283018A1, “TOILET RIM BLOCKS WITH SCENT CHANGE” (SYMRISE AG, priority 2021, published 2025).
Where two headings read alike, the source gives them in different places.

Tests used:
[1] = not given; remark: listed apart in the source
[2] = Table 3, components of POWER PLATIN

Compound | logP (Table 1, components of MARINA) | Bp. [° C.] ([1]; Table 1, components of MARINA) | logP [2] | Bp. [° C.] [1, 2] | logP (list of selected fragrances) | Bp. [° C.] ([1]; list of selected fragrances) | also measured
CCCCCCCCCCC=O [ALDEHYD C11 UNDECANAL] | 4.25 | 223 °C | – | – | – | – | –
CCCCCCCCCCCC=O [ALDEHYD C12 LAURIN] | 4.75 | 249 °C | – | – | – | – | –
CCCCCCCCCC(C)C=O (centres unmarked) [ALDEHYD C12 MNA] | – | – | 4.67 | 171 °C | – | – | –
CCCCCCCC=O [ALDEHYD C 8] | 2.78 | 171 °C | – | – | – | – | logP (Table 2, components of PEACH): 2.78; Bp. [° C.] ([1]; Table 2, components of PEACH): 171 °C
CCCCCCCCC=O [ALDEHYD C 9] | 3.27 | 191 °C | – | – | – | – | –
CCCCCCCCCCO [ALKOHOL C10] | 3.79 | 231.1 °C | – | – | – | – | –
COC(OC)C(C)(C)CC=C(C)C [AMAROCIT ®] | – | – | 3.39 | 203 °C | – | – | –
O=C(OCc1ccccc1)c1ccccc1O [BENZYLSALICYLAT] | – | – | – | – | 4.06 | 325 °C | –
CC(=O)/C=C/C1=C(C)CCCC1(C)C [BETA IONONE] | – | 259 °C | – | – | 3.77 | 259 °C | –
Cc1ccc2c(c1)OCC(=O)CO2 [CALONE] | 2.43 | 289 °C | 2.43 | 289 °C | – | – | –
C=C1CC/C=C(/C)CC[C@@H]2[C@@H]1CC2(C)C [CARYOPHYLLEN NAT. REKT.] | – | – | 6.3 | 251 °C | – | – | –
CC(C)=CCCC(C)CCOC(=O)C(C)C (centres unmarked) [CITRONELLYLISOBUTYRAT] | – | – | – | – | 5.04 | 267 °C | logP (Table 2, components of PEACH): 5.47; Bp. [° C.] ([1]; Table 2, components of PEACH): 267 °C
C/C=C/C(=O)C1=C(C)C=CCC1(C)C [DAMASCENON] | – | – | 4.21 | 263 °C | – | – | logP (Table 2, components of PEACH): 4.21; Bp. [° C.] ([1]; Table 2, components of PEACH): 263 °C
CCCCCC1CCCC(=O)O1 (centres unmarked) [DECALACTON DELTA] | – | – | – | – | – | – | logP (Table 2, components of PEACH): 2.57; Bp. [° C.] ([1]; Table 2, components of PEACH): 267 °C
C/C=C/C(=O)C1C(C)C=CCC1(C)C (centres unmarked) [DELTA DEMASCONE] | – | – | 4.16 | 251 °C | – | 251 °C | logP (Table 2, components of PEACH): 4.16; Bp. [° C.] ([1]; Table 2, components of PEACH): 251 °C
C=CC(C)CCCC(C)(C)O (centres unmarked) [DIHYDROMYRCENOL] | 3.47 | 194 °C | 3.47 | 194 °C | – | – | –
c1ccc(Oc2ccccc2)cc1 [DIPHENYLOXID] | 4.05 | 258 °C | 4.05 | 258 °C | – | – | –
CCCCCCCCC1CCC(=O)O1 (centres unmarked) [DODECALACTON GAMMA] | – | – | – | – | – | – | logP (Table 2, components of PEACH): 3.55; Bp. [° C.] ([1]; Table 2, components of PEACH): 291 °C
CCC(=CCC1CC=C(C)C1(C)C)CO (centres unmarked) [ETHYL TRIMETHYLCYCLOPENTENE BUTENOL] | – | – | – | – | 4.63 | 276 °C | –

Compound | logP (Table 1, components of MARINA) | Bp. [° C.] ([1]; Table 1, components of MARINA) | logP [2] | Bp. [° C.] [1, 2] | logP (list of selected fragrances) | Bp. [° C.] ([1]; list of selected fragrances) | also measured
O=C1CCCCCCCCCCCC(=O)OCCO1 [ETHYLENBRASSYLAT] | 4.71 | 382 °C | – | – | – | – | –
CCc1occc(=O)c1O [ETHYLMALTOL] | – | – | 0.3 | 290 °C | – | – | –
CCc1ccc(CC(C)(C)C=O)cc1 [FLORALOZONE] | – | – | 3.94 | 276.6 °C | – | – | –
CC1CC(C)(c2ccccc2)OC(C)O1 (centres unmarked) [FLOROPAL] | 3.11 | 273 °C | – | – | – | – | –
Cc1ccc2c(c1)OC(=O)C2C (centres unmarked) [FURAMINTON/TONKALACTONE ™] | – | – | – | – | – | – | logP (Table 2, components of PEACH): 1.44; Bp. [° C.] ([1]; Table 2, components of PEACH): 284 °C
CCCCCCC1CCC(=O)O1 (centres unmarked) [GAMA DECALACTONE] | – | – | – | – | 2.36 | 266 °C | logP (Table 2, components of PEACH): 2.57; Bp. [° C.] ([1]; Table 2, components of PEACH): 266 °C
O=Cc1ccc2c(c1)OCO2 [HELIOTROPIN/PIPERONAL] | – | – | – | – | 1.35 | 263 °C | –
CCCCCC(C)=O [HEPTANON-2] | – | – | – | – | – | – | logP (Table 2, components of PEACH): 1.73; Bp. [° C.] ([1]; Table 2, components of PEACH): 150 °C
CC/C=C/CCOC(=O)c1ccccc1O [HEXENYLSALICYLAT CIS-3] | – | – | – | – | 4.5 | 301 °C | –
CCCCCCOC(=O)c1ccccc1O [HEXYLSALICYLAT, hexyl salicylate] | 5.06 | 327 °C | – | – | 4.98 | 327 °C | –
c1ccc2[nH]ccc2c1 [INDOL FF] | – | – | 2.05 | 254 °C | – | – | logP (Table 2, components of PEACH): 2.05; Bp. [° C.] ([1]; Table 2, components of PEACH): 254 °C
CC(=O)OCCC(C)C [ISOAMYLACETAT] | – | – | – | – | – | – | logP (Table 2, components of PEACH): 2.26; Bp. [° C.] ([1]; Table 2, components of PEACH): 143 °C
CCCC(=O)OCCC(C)C [ISOAMYLBUTYRAT] | – | – | – | – | – | – | logP (Table 2, components of PEACH): 3.25; Bp. [° C.] ([1]; Table 2, components of PEACH): 179 °C
CCC(C)=CCCC(C)=CC#N [LEMONILE] | – | – | 3.96 | 249 °C | – | – | –
C=CC(C)(O)CCC=C(C)C (centres unmarked) [LINALOOL] | – | – | 3.38 | 198 °C | – | – | –
Cc1ccc2c(c1)OCC(=O)CO2 [METHYLBENZODIOXEPINON] | – | – | – | – | 1.8 | 289 °C | –
CCCCCCCCCCCCCCCCCC=O [OCTADECANAL] | – | – | – | – | 1.83 | 250 °C | –
O=C1CCCCCCCCCCCCCCO1 [OMEGA PENTADECALACTONE] | – | – | – | – | 5.35 | 341 °C | –
CCCCCCCCCCC=CC#N [OZONIL] | 5.04 | 293 °C | – | – | – | – | –

Compound | logP (Table 1, components of MARINA) | Bp. [° C.] ([1]; Table 1, components of MARINA) | logP [2] | Bp. [° C.] [1, 2] | logP (list of selected fragrances) | Bp. [° C.] ([1]; list of selected fragrances) | also measured
CC1(C)C2CC=C(CCC=O)C1C2 (centres unmarked) [PINOACETALDEHYD] | 3.76 | 242 °C | – | – | – | – | –
CC(C)=CCCC1=CCC(C)(C=O)CC1 (centres unmarked) [PRECYCLEMONE B] | 5.19 | 267 °C | 5.19 | 267 °C | – | – | –
COC1CC2CC1C1CC(C=O)CC21 (centres unmarked) [SCENTENAL] | 2.03 | 273 °C | – | – | – | – | –
CC1=CCC(=C(C)C)CC1 [TERPINOLEN DEXTRO] | – | – | 4.88 | 197 °C | – | – | –
CCCCCCCCCCCCCC=O [TETRADECANAL] | – | – | – | – | 2.89 | 286 °C | –
CC(C)CCCC(C)CCO (centres unmarked) [TETRAHYDROGERANIOL] | 3.64 | 212 °C | 3.64 | 212 °C | – | – | –
CC1CCC(C(C)(C)S)C(=O)C1 (centres unmarked) [THIOMENTHANON-8,3] | – | – | – | – | – | – | logP (Table 2, components of PEACH): 2.78; Bp. [° C.] ([1]; Table 2, components of PEACH): 271 °C
CCCCCCCCCC(C)=O [UNDECANON-2] | – | – | 3.69 | 231.5 °C | – | – | –
CC/C=C(\C)C(O)CCCCC (centres unmarked) [UNDECAVERTOL] | 4.05 | 235 °C | – | – | – | – | –
CCCCCC1(C)CCC(C)(C)C1=O (centres unmarked) [VELOUTONE] | – | – | – | – | – | – | logP (Table 2, components of PEACH): 4.34; Bp. [° C.] ([1]; Table 2, components of PEACH): 247 °C
CC(=O)OC1CC2CC1C1CC=CC21 (centres unmarked) [VERDYL ACETATE] | – | – | – | – | 2.36 | 260 °C | –
COC(=O)c1ccccc1N [[…]] | – | 256 °C | – | 256 °C | 2.12 | 256 °C | –
CARYOPHYLLENACETAT | 5.75 | 306 °C | – | – | 5.52 | 306 °C | logP (Table 2, components of PEACH): 5.75; Bp. [° C.] ([1]; Table 2, components of PEACH): 306 °C
HERBYLPROPIONAT | 3.68 | 276.15 °C | – | – | 2.89 | 276.15 °C | –
ISOBUTYLMENTHONE | 2.94 | 211 °C | – | – | – | – | –
MENTHON L/ISOMENTHON D | 2.87 | 204 °C | – | – | – | – | –
NEROL 900 | – | – | 3.47 | 228 °C | – | – | –
SPIRO[1,3-DIOXOLANE-2,5′-(4′,4′,8′,8′-TETRAMETHYL-HEXAHYDRO-3′,9′-MENTHANONAPHTHALENE)] | – | – | – | – | 5.16 | 280 °C | –
